# Experimental data taken from patent US9675697B2 (THE REGENTS OF THE UNIVERSITY OF MICHIGAN, priority 2013, dated 2017).
# Read-outs that look alike come from different tables or passages of the source.
# Experiments:
# [1] = molecular target: T1, BRD2 BD1 (Homo sapiens (Human), UniProt P25440); assay: OctetRED biolayer interferometry (BLI) binding assay
# Protocol: (§1) Binding affinities of synthesized compounds to BRD2 BD1 and BD2, BRD3 BD1 and BD2, and BRD4 BD1 and BD2 were also determined by a label free binding assay using the OctetRED label free biolayer interferometry (BLI) binding assay.
# (§2) BLI measures interference pattern changes of light reflected from an optical layer and a biolayer containing protein targets only or complexed with interacting partners. The assay principle is similar to the surface plasmon resonance (SPR) assay in which the target protein is immobilized on an optical surface and then exposed to potential binding partners in solution. The interaction between the binding partner and the immobilized protein changes the optical properties of the biosensors, resulting in the wavelength shift of reflecting light which will change the interference pattern. Association and dissociation rates can be obtained by fitting the real time wavelength shift of the based on a proper binding model, from which KD values can be obtained thereafter.
# (§3) Biotin labeled BRD proteins (10 μg/ml) in kinetic assay buffer (PBS, pH 7.4, 0.1% BSA and 0.01% Tween-20) were immobilized on Super Streptavidin (SSA) sensors for 15 minutes followed by washing in kinetic buffer for 10 minutes to eliminate any loose non-specific immobilization. […] These protein coated sensors were then immersed into the testing compound solutions, starting from the one with the lowest concentration, where compound association occurs and then returned to the fresh buffer for the dissociation. The same operation was repeated for the next solution with higher concentration up to the one with the highest concentration. […] For each kinetic cycle, kinetic curves for association and dissociation were obtained from raw sensorgrams by using the double reference subtraction protocol included in the analysis program (Data Analysis 7.0) provided by the manufacturer, in which nonspecific interaction and buffer drift were both corrected. The association and dissociation rate constants (kon and koff) were determined using the global fitting protocol in the analysis program based on a reversible 1:1 binding model. The equilibrium association constant (KA) was calculated thereafter. All binding data were collected at 30 degree. Assay plates were kept being shaken at 1000 RPM in the whole experiment time period to avoid mass transport effect.
# [2] = molecular target: T2, BRD2 BD2 (Homo sapiens (Human), UniProt P25440); assay: as above
# Protocol: as §1, §2, §3
# [3] = molecular target: T3, BRD3 BD1 (Homo sapiens (Human), UniProt Q15059); assay: as above
# Protocol: as §1, §2, §3
# [4] = molecular target: T4, BRD3 BD2 (Homo sapiens (Human), UniProt Q15059); assay: as above
# Protocol: as §1, §2, §3
# [5] = molecular target: T5, BRD4 BD1 (Homo sapiens (Human), UniProt O60885); assay: as above
# Protocol: as §1, §2, §3
# [6] = molecular target: T6, BRD4 BD2 (Homo sapiens (Human), UniProt O60885); assay: as above
# Protocol: as §1, §2, §3
# [7] = test system: leukemia MOLM-13 cell line; assay: 4-day cell viability assay, CellTiter-Glo; assay type: cell-based; conditions: 4 days, read-out: Cell Growth Inhibition (IC50 (nM)) MOLM-13 Cell Line (CellTiter-Glo assay)
# Protocol: (§4) The effect of representative BET bromodomain inhibitors on cell viability was determined in a 4-day proliferation assay. Cells were maintained in the appropriate culture medium with 10% FBS at 37° C. and an atmosphere of 5% CO2. All the cell lines were used within three months of thawing fresh vials.
# (§5) Cells were seeded in 96-well flat bottom (Corning COSTAR, Corning, N.Y., cat#3595) or white opaque cell culture plates (BD Falcon, cat#353296) at a density of 3,000-10,000 cells/well in 75 μl of culture medium. Compounds were serially diluted in the appropriate medium, and 75 μl of the diluted compounds were added to the appropriate wells of the cell plate. After the addition of compounds, the cells were incubated at 37° C. in an atmosphere of 5% CO2 for 4 days. Cell viability was determined using the CellTiter-Glo® Luminescent Cell Viability Assay Kit (Promega, Madison, Wis.) for MOLM-13 cells and WST (2-(2-methoxy-4-nitrophenyl)-3-(4-nitrophenyl)-5-(2,4-disulfophenyl)-2H-tetrazolium, monosodium salt) Cell Counting-8 Kit (Dojindo Molecular Technologies, Inc., Rockville, Md.) for MDA-MB-436 cells according to the manufacturers' instructions.
# For the CellTiter-Glo assay, 100 μl of CellTiter-Glo® Reagent was added to each well, and then the plates were incubated at room temperature for 10-20 minutes. The luminescent signal was measured using a Tecan Infinite M1000 multimode microplate reader (Tecan, Morrisville, N.C.). The readings were normalized to the DMSO-treated cells and the IC50 was calculated by nonlinear regression (four parameters sigmoid fitted with variable slope, least squares fit, and no constraint) analysis using the GraphPad Prism 5 software.
# [8] = test system: MV4;11; assay: Cell growth inhibition in leukemia cell line; assay type: cell-based
# [9] = test system: AML-2; assay: Cell growth inhibition in leukemia cell line; assay type: cell-based
# Protocol: as §4, §5
# [10] = test system: K562; assay: Cell growth inhibition in leukemia cell line; assay type: cell-based; conditions: Homo sapiens
# [11] = molecular target: T1, BRD2 BD1; assay: FP competitive binding assay using Cpd. No. 350 as the probe
# [12] = molecular target: T2, BRD2 BD2; assay: as above
# Protocol: (§8) Fluorescence Polarization (FP) competitive binding studies (see above) were carried out using the FAM labeled fluorescent probe Cpd. No. 350 to determine binding affinities of representative compounds to both BD1 and BD2 of BRD2, BRD3, and BRD4 proteins. Equilibrium dissociation constants (Id) values of Cpd. No. 350 to these six proteins were determined from protein saturation experiments by monitoring the total fluorescence polarization of mixtures composed with the fluorescent probe at a fixed concentration and proteins with increasing concentrations up to full saturation. Serial dilutions of testing protein were mixed with Cpd. No. 350 to a final volume of 200 μl in the assay buffer. […] Plates were incubated at room temperature for 30 minutes with gentle shaking to assure equilibrium. […] Kd values of Cpd.
# (§9) The IC50 and Ki values of compounds were determined in a competitive binding experiment as described above. […] FP values were measured as described above. IC50 values were determined by nonlinear regression fitting of the competition curves.
# [13] = molecular target: T5, BRD4 BD1; assay: as above
# Protocol: as §8, §9
# [14] = molecular target: T6, BRD4 BD2; assay: as above
# Protocol: as §8, §9
# [15] = test system: prostate VCaP cell line; assay: Cell growth inhibition, Cell TiterGLO, 4 days; assay type: cell-based; conditions: Homo sapiens, VCaP, 96 h, treated 4 days, read-out: VCaP cells (IC50 (nM))
# [16] = test system: MOLM-13; assay: Cell growth inhibition, CellTiter-Glo, acute leukemia cell line; assay type: cell-based; conditions: Homo sapiens, MOLM-13, 96 h, 4 days
# Protocol: (§6) Cell growth inhibitory activity of representative BET bromodomain inhibitors was determined using CellTiter-Glo® Luminescent Cell Viability Assay. For leukemia cell lines MV-4-11 (ATCC, Manassas, Va.) and MOLM-13 (DSMZ, Germany), cells were seeded in 96-well white opaque cell culture plates at a density of 10,000 cells/well with serially diluted compounds and incubated at 37° C. in an atmosphere of 95% air and 5% CO2 for 4 days. Cell viability was determined using the CellTiter-Glo® Luminescent Cell Viability Assay Kit (Promega, Madison, Wis.) according to the manufacture's instruction. Briefly, a volume of CellTiter-Glo® Reagent equal to the volume of cell culture medium was added to each well, and then the plates were incubated at room temperature for 10-20 minutes. The luminescent signal was measured using a Tecan Infinite M1000 multimode microplate reader (Tecan, Morrisville, N.C.). The half maximal inhibitory concentration (IC50) was calculated using the GraphPad Prism 5 software (GraphPad Software, La Jolla, Calif.).
# [17] = test system: MV-4-11; assay: as above; assay type: cell-based; conditions: Homo sapiens, MV4-11, 96 h, 4 days
# Protocol: as §6
# [18] = test system: breast cancer MDA-MB-436 cell line; assay: 4-day cell viability assay, WST; assay type: cell-based; conditions: Homo sapiens, MDA-MB-436, 96 h; 4 days; read-out: Cell Growth Inhibition (IC50 (nM)) MDA-436 Cell Line (WST assay)
# Protocol: as §4, §5
# For the WST assay, WST-8 reagent was added to each well at a final concentration of 10% (v/v), and then the plates were incubated at 37° C. for 1-2 hours for color development. The absorbance was measured at 450 nm using a SPECTRAmax PLUS plate reader (Molecular Devices, Sunnyvale, Calif.). The readings were normalized to the DMSO-treated cells and the half maximal inhibitory concentration (IC50) was calculated by nonlinear regression (four parameters sigmoid fitted with variable slope, least squares fit, and no constraint) analysis using the GraphPad Prism 5 software (GraphPad Software, La Jolla, Calif.).
# [19] = molecular target: T1, BRD2 BD1; assay: FP protein saturation experiment with probe Cpd. No. 350; assay type: binding; conditions: probe 1.5 nM
# Protocol: (§7) Fluorescence Polarization (FP) competitive binding studies (see above) were carried out using the FAM labeled fluorescent probe Cpd. No. 350 to determine binding affinities of representative compounds to both BD1 and BD2 of BRD2, BRD3, and BRD4 proteins. Equilibrium dissociation constants (Id) values of Cpd. […] Final Cpd. […] Kd values of Cpd.
# [20] = molecular target: T2, BRD2 BD2; assay: as above; assay type: binding; conditions: probe 1.5 nM
# Protocol: as §7
# [21] = molecular target: T3, BRD3 BD1; assay: as above; assay type: binding; conditions: probe 1.5 nM
# Protocol: as §7
# [22] = molecular target: T4, BRD3 BD2; assay: as above; assay type: binding; conditions: probe 1.5 nM
# Protocol: as §7
# [23] = molecular target: T5, BRD4 BD1; assay: as above; assay type: binding; conditions: probe 1.5 nM
# Protocol: as §7
# [24] = molecular target: T6, BRD4 BD2; assay: as above; assay type: binding; conditions: probe 1.5 nM
# Protocol: as §7
# [25] = Homo sapiens, MV4-11, cell growth inhibition
# T4 sequence (Q15059 306-415): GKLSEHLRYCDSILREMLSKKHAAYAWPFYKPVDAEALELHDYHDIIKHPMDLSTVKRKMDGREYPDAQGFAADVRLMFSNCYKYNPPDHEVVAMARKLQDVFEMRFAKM
# T3 sequence (Q15059 34-140): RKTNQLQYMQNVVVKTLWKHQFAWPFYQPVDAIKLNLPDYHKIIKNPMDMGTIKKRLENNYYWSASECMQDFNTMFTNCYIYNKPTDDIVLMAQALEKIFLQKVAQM
# T1 sequence (P25440 74-180): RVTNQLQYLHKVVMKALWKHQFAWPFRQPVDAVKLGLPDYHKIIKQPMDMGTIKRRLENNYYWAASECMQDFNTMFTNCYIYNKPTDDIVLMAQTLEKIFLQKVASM
# T2 sequence (P25440 344-453): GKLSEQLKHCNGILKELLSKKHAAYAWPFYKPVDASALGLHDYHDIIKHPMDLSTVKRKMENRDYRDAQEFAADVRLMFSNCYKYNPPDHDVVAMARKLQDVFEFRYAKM
Kd [1],Kd [2],Kd [5],Kd [6],IC50 [9],IC50 [10],Ki [11],Ki [12],"IC50 ([7]; Homo sapiens, MOLM-13, 96 h)","IC50 [8, 25]",Structure (SMILES),Ki [13],Ki [14],also measured
25.6 ± 3.7 nM,–,29 ± 8.8 nM,12.9 ± 2.1 nM,104 ± 5 nM,> 2000 nM,11.1 ± 1 nM,11.7 ± 3 nM,104 ± 16 nM,17 ± 3 nM,"CCc1n[nH]c(CC)c1-c1nccc2[nH]c3cc(-c4c(C)noc4C)c(OC)cc3c12 [Cpd. No. 23, 4-(1-(3,5-diethyl-1H-pyrazol-4-yl)-8-methoxy-5H-pyrido[4,3-b]indol-7-yl)-3,5-dimethylisoxazole]",24.7 ± 1 nM,12.2 ± 1.6 nM,IC50 [15]: 117 nM
33.8 ± 8.2 nM,11 ± 4.7 nM,27 ± 14.5 nM,10.2 ± 4.5 nM,–,–,–,–,–,–,COc1cc2c(cc1-c1c(C)noc1C)[nH]c1ncnc(-c3c(C)[nH]c4ccccc34)c12 [Cpd. No. 44],–,–,"Kd ([3]; BLI, read-out: Kd (nM) BRD3 BD1): 17 ± 7 nM; Kd ([4]; BLI, read-out: Kd (nM) BRD3 BD2): 10.6 ± 1.1 nM; IC50 [16]: < 100 nM; IC50 [17]: < 100 nM"
41.2 ± 2.2 nM,35.9 ± 8.8 nM,–,–,163 ± 2 nM,> 2000 nM,12.2 ± 1.7 nM,22.2 ± 2.8 nM,343 ± 5 nM,65 ± 24 nM,"COc1cc2c(cc1-c1c(C)noc1C)[nH]c1ccnc(-c3c(C)nn(C)c3C)c12 [Cpd. No. 25, 4-(8-methoxy-1-(1,3,5-trimethyl-1H-pyrazol-4-yl)-5H-pyrido[4,3-b]indol-7-yl)-3,5-dimethylisoxazole]",–,–,IC50 [18]: 119 nM
–,–,–,–,–,–,–,–,–,–,COc1cc2c(cc1-c1c(C)noc1C)[nH]c1nc(C(=O)NC3CCN(CCCNC(=O)c4ccc(-c5c6ccc(=O)cc-6oc6cc(O)ccc56)c(C(=O)O)c4)CC3)nc(-c3ccnc4ccc(F)cc34)c12 [Cpd. No. 350],–,–,Kd [19]: 2 nM; Kd [20]: 2.2 nM; Kd [21]: 6.5 nM; Kd [22]: 0.6 nM; Kd [23]: 5.5 nM; Kd [24]: 3 nM

Structure (SMILES),Kd [1],Kd [2],Kd [5],Kd [6],IC50 [9],IC50 [10],Ki [11],Ki [12],"IC50 ([7]; Homo sapiens, MOLM-13, 96 h)","IC50 [8, 25]",Ki [13],Ki [14],also measured
"COc1cc2c(cc1-c1c(C)noc1C)[nH]c1ccnc(-c3c(C)n[nH]c3C)c12 [Cpd. No. 22, 4-(1-(3,5-dimethyl-1H-pyrazol-4-yl)-8-methoxy-5H-pyrido[4,3-b]indol-7-yl)-3,5-dimethylisoxazole]",34 ± 2.1 nM,24.4 ± 6.2 nM,40 ± 6.4 nM,27.9 ± 6.8 nM,101 ± 22 nM,> 2000 nM,21 ± 3.3 nM,15.4 ± 3.2 nM,–,–,44.1 ± 6.4 nM,16.1 ± 2.8 nM,Kd [3]: 17.9 ± 8.8 nM; Kd [4]: 18.7 ± 4.9 nM; IC50 [7]: 183 ± 38 nM; IC50 ([8]; cell growth inhibition): 61 ± 28 nM
